The source of these data is patent publication US5430055A, “Inhibitor of squalene synthase” (Pfizer Inc., priority 1994, dated 1995).

The test system of test [1] is Cryptococcus bhutanensis, Sensitive Strain (against zaragozic Acid A). Kind of test: Antifungal bioassay, zone of inhibition, sensitive strain (against zaragozic acid A). In kind it is cell-based. To be noted: yeast nitrogen based medium, 28° C., 2 to 3 days. How it is done:
(§1) The antifungal activity of the compound I was determined with a bioassay such as Cryptococcus bhutanensis FD 23971. A ten-day-old slant of C. bhutanensis was washed with 10 ml of sterile water, and 300 μl of the suspension was mixed with an assay medium consisting of 0.67% of yeast nitrogen based medium (DIFCO) and 0.5% of glucose. 150 ml of the warm medium was poured onto a sterile, polystyrene bioassay plate (245×245×20 mm) and was left to solidify. The solid medium was bored into well-separated wells with a size #2 cork bore, and 25 μl of whole broth or extracted broth was spotted into the wells. The plates were incubated at 28° C. for 2 to 3 days and the zone of inhibition was measured.
(§2) The zones of inhibition against Cryptococcus bhutanensis on a yeast nitrogen based medium are as follows: […]

Test [2] has as its system Cryptococcus bhutanensis, Resistant Strain. Kind of test: Antifungal bioassay, zone of inhibition, resistant strain. In kind it is cell-based. Conditions: yeast nitrogen based medium, 28° C., 2 to 3 days. How it is done: as §1, §2
Test [3] addresses T1, ras farnesyltransferase (Rattus norvegicus, UniProt Q02293+Q04631).
T1 construct: diluted rat brain cytosol; from tissue; host or cells: rat brain cytosol
Kind of test: ras Farnesyltransferase inhibition assay. In kind it is biochemical. Conditions: rat brain cytosol, H-ras 4 μM, 30 minutes at 37° C., pH 7.5. How it is done: The ras farnesyltransferase inhibition assay was conducted in a final volume of 25 μL. The reaction is initiated by addition of 10 μpL of the diluted rat brain cytosol to a mixture of 15 μL of the ras farnesyltransferase substrate/cofactor solution and 0.3 μL of test compound solution as set out in Table 7.
The rat brain cytosols were diluted to a protein concentration of 3.0 mg/mL. Test compound solutions were prepared in dimethyl sulfoxide at concentrations of 25 mM (final assay concentration 300 μM). Control incubations received 0.3 μL of dimethyl sulfoxide and enzyme blanks received 10 μL rat brain homogenization buffer (50 mM tris HCl (pH=7.5), 5 mM dithiothreitol, 0.2M KCl, 20 μM ZnCl2). After a 30 minute incubation at 37° C., the reaction was terminated by addition of 200 μL of 10% (v/v) HCl in EtOH. After an additional 15 minute incubation at 37° C., 300 μl absolute EtOH were added and the entire sample was applied to a filtration well of a Packard Unifilter-GF/B 96-well plate under vacuum. After complete sample addition, the filter well was washed four times with 500 μl each of absolute ethanol and allowed to dry. The bottom of the Unifilter-GF/B plate was then sealed, 50 μl Microscint-20 liquid scintillation fluid were added to each well and the plate was heat-sealed and then counted in a Packard Top-Count liquid scintillation counter.
ras Farnesyltransferase Assay […]

Test [4] addresses T2, squalene synthase (Homo sapiens, UniProt P37268).
T2 sequence (P37268 1-417): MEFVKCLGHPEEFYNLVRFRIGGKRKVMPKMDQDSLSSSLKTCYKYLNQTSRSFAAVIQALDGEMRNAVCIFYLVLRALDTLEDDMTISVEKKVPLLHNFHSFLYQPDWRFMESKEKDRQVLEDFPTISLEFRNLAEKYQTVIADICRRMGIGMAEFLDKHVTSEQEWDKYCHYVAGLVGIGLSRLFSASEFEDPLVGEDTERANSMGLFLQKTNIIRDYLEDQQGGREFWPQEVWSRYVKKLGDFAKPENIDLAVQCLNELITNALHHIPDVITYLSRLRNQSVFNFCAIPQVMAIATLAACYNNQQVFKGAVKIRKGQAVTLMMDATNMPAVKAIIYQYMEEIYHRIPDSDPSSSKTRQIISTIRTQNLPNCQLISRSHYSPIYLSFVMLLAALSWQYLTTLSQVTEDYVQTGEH
Kind of test: Squalene Synthase Inhibition Assay. Type of test: biochemical. Conditions: microsomal protein, 30 minutes at 37° C., pH 7.4.
Method: The squalene synthase inhibition assay was conducted in a final volume of 75 μl. The reaction is initiated by addition of 25 μl of the diluted and deoxygenated microsomal suspension to a mixture of 47 μl of the deoxygenated SQS substrate/cofactor solution and 3 μl of the deoxygenated test compound solution as set out in Table 6.
Glucose-6-phosphate 0.95 U
The microsomal suspensions were diluted to a microsomal protein concentration of 1 mg/ml and deoxygenated by repetitive cycles of evacuation and airation with nitrogen. […] Control incubations received 3 μl of deoxygenated dimethyl sulfoxide and enzyme blanks received 25 μl of deoxygenated PMED buffer (50 mM K2 PO4 (pH=7.4), 5 mM MgCl2, 1 mM EDTA, 5 mM dithiothreitol). Assay tubes were immediately flushed with nitrogen and capped, and the solution was vortexed gently. Following 30 minutes of incubation at 37° C., reactions were terminated by addition of 40 μl of 10M sodium hydroxide. […] The region of the chromatogram from 1 cm below the squalene band (visualized with iodine vapors) to the top of the chromatogram was removed and counted in a liquid scintillation counter using Aquasol-2 liquid scintillation fluid. […]
SQS activity (overall reaction) is calculated as pmoles of [3H] squalene formed from [1-3H] […]

Test [5] has as its system ras protein farnesylation. To be noted: background statement; cited from earlier work.

Regarding `C/C=C/CCCCC[C@@H]1C=C2[C@]3(CC(=O)O)CC4=C(C(=O)OC4=O)[C@@H]4[C@H]1C[C@H](C(=O)CC/C=C/C)O[C@]24OC3=O` [CP-263,114], the zone of inhibition – broadly, the size of the clear area around the sample on an inoculated plate – in test [1] amounted to 42 mm; in test [2], 45 mm.

On to `C/C=C/CCCCC[C@@H]1C=C2[C@]3(CC(=O)O)CC4=C(C(=O)OC4=O)[C@H]([C@H]1C[C@@H](O)C(=O)CC/C=C/C)[C@@]2(O)OC3=O` [Fraction 5 compound], for which the results for the IC50 in test [3] and in test [4] were 6 µM and 48 µM, respectively. The zone of inhibition in test [1] came to 15 mm; in test [2], 22 mm.

Consider `C=C(CC[C@]12O[C@H](C(=O)O)[C@@](O)(C(=O)O)[C@](C(=O)O)(O1)[C@H](OC(=O)/C=C/[C@@H](C)C[C@@H](C)CC)[C@H]2O)[C@@H](OC(C)=O)[C@H](C)Cc1ccccc1` [Zaragozic acid A, reference compound], for which, in test [3], the midpoint of inhibition, the IC50, lay at 3 µM. For the same molecule, in test [5], the “inhibition of farnesylation of ras protein” value is on record as “inhibit farnesylation of ras protein”.
